According to patent US6958341B2, “Pyrazolopyrimidines as CRF antagonists” (Bristol-Myers Squibb Pharma Company, priority 1999, dated 2005):

- melting point: 227 to 228 °C
SMILES: CCC(CC)c1c(O)nn2c(-c3ccc(Cl)cc3Cl)c(C)cnc12 [Example 92, 7-(2,4-dichlorophenyl)-2-hydroxy-6-methyl-3-(3-pentyl)pyrazolo[1,5-a]pyrimidine]
